Key:
S. aureus = experiment: Vancomycin tolerance of aroused dormant and vegetative S. aureus; assay type: cell-based; conditions: aroused dormant forms after heat-killing of vegetative forms
Description: Dormant cells of S. aureus could be enumerated and classified in the presence of their vegetative forms by heat-killing the sensitive vegetative forms while preserving the more resistant dormant forms. […] Before heating, 4×10^7 CFUs/mL were viable, after heating, no viable cells were detected until the dormant cells were aroused by osmolal downshift gradients.

[1] = tested on: spores of the genera Bacillus and Clostridium; conditions: substance added to the buffer; neutral suspensions heated at 65° C. for 20 minutes; cited from earlier work
L. monocytogenes [2] = experiment: L. monocytogenes arousal by serial dilutions in PBS, growth on antibiotic agar; assay type: cell-based; conditions: PBS pH 7.3
L. monocytogenes [3] = experiment: Dialysis plus dilution of dormant L. monocytogenes, growth in presence of antibiotic; assay type: cell-based; conditions: 18 hrs. adjustment period
Method: An aliqout of culture was dialyzed against 250 volumes of PBS, pH 7.3 at 37° C. with stirring for 40 min. After an adjustment period of 18 hrs., the retentate was diluted serially 1:5 in PBS, pH 7.3, and streaked on agar.

L. monocytogenes [4] = experiment: Growth (CFUs/mL or grow-out hrs.) of dormant L. monocytogenes on agar with antibiotic after sequential PBS extractions; assay type: cell-based; conditions: for Growth in presence of ampicillin: PBS pH 7.3
Method: (§1) A culture containing 100% dormant bacteria was microfuged and the supernatant replaced with an equal volume of PBS, pH 7.3 and incubated at 37° C. After 20 minutes, the pellet was again recovered by centrifugation and resuspended in fresh PBS.
A 4 year old dormant broth culture of L. monocytogenes was centrifuged and the supernatant replaced with an equal volume of Dulbecco's PBS, 1×, 4×, or 10×, pH 7.3 or 6.1 for 10, 20, or 40 min. extraction periods, followed by different periods of adjustment at 37° C. This was repeated and the pellets held for various times in buffer (adjustment period) before plating on agar. Inoculated agars were held at 37° C. for various lengths of time (grow-out period).

L. caseii [5] = experiment: Dialysis plus dilution of dormant L. caseii, growth in presence of antibiotic; assay type: cell-based; conditions: for Growth in presence of 60 IU Amp/mL: dialysis, 18 hrs. adjustment period
L. monocytogenes [6] = experiment: Antibiotic tolerance of vegetative and aroused dormant L. monocytogenes (classification); assay type: cell-based; conditions: both native vegetative and aroused dormant cells
L. caseii [7] = experiment: Growth of dormant L. caseii on agar with antibiotic after sequential extractions; assay type: cell-based; conditions: for Growth in presence of 60 IU/mL ampicillin: PBS pH 7.3
Method: as §1
A 2 year old dormant broth culture of L. caseii was centrifuged and the supernatant replaced with an equal volume of Dulbeccos' PBS, 1× or 4× at pH 7.3, or water for 20 min. followed by different periods of adjustment at 37° C.

P. aeruginosa = experiment: Growth of duplex culture of P. aeruginosa with antibiotic after sequential extractions; assay type: cell-based; conditions: Dulbecco's PBS pH 7.3
Method: Separate cultures containing both dormant and vegetative cells of P. aeruginosa or E. coli were centrifuged and the pellets resuspended in an equal amount of Dulbecco's PBS pH 7.3 for serial extractions of 20 min. followed by different periods of adjustment at 37° C.

L. plantarum ATCC 14917 = experiment: Dialysis of dormant L. plantarum ATCC 14917, tolerance to antibiotic; assay type: cell-based; conditions: retentate after four changes of 250 volumes of PBS, 44 hrs. of dialysis, no adjustment period
[8] = dilution after adjustment 1:125
[9] = dilution after adjustment: None

CN[C@H](CC(C)C)C(=O)N[C@H]1C(=O)N[C@@H](CC(N)=O)C(=O)N[C@H]2C(=O)N[C@H]3C(=O)N[C@H](C(=O)N[C@H](C(=O)O)c4cc(O)cc(O)c4-c4cc3ccc4O)[C@H](O)c3ccc(c(Cl)c3)Oc3cc2cc(c3O[C@@H]2O[C@H](CO)[C@@H](O)[C@H](O)[C@H]2O[C@H]2C[C@](C)(N)[C@H](O)[C@H](C)O2)Oc2ccc(cc2Cl)[C@H]1O [vancomycin]
showed tolerance: Tolerance to 30 μg vancomycin/mL (S. aureus)

N[C@@H](Cc1ccc(O)cc1)C(=O)O [L-tyrosine]
100%: spores that germinate [1]

C[C@H](N)C(=O)O [L-alanine]
100%: spores that germinate [1]

CN(C)[C@@H]1C(O)=C(C(N)=O)C(=O)[C@@]2(O)C(O)=C3C(=O)c4c(O)cccc4[C@@](C)(O)[C@H]3C[C@@H]12 [tetracycline]
144 h: Periods of adjustment required for growth on: 30 μg TC (L. monocytogenes [2]; serial dilutions 1:10) | Periods of adjustment required for growth on: 30 μg TC (L. monocytogenes [2]; serial dilutions 1:100) | Periods of adjustment required for growth on: 30 μg TC (L. monocytogenes [2]; serial dilutions 1:1000)

CC1(C)S[C@@H]2[C@H](NC(=O)[C@H](N)c3ccccc3)C(=O)N2[C@H]1C(=O)O [ampicillin]
72 h: Growth in presence of 60 IU amp/mL (P. aeruginosa; 3 × 20 min., adjustment time 24 hrs.)
0 CFUs/mL: Growth in presence of ampicillin (L. monocytogenes [4]; Control (no extraction)) | Growth in presence of 60 IU Amp/mL (L. caseii [5]; dilution after adjustment 1:5) | Growth in presence of 60 IU Amp/mL (L. caseii [5]; dilution after adjustment 1:25) | Growth in presence of 60 IU Amp/mL (L. caseii [5]; [8]) | Growth in presence of 60 IU Amp/mL (L. caseii [5]; [9]) | Growth in presence of 60 IU/mL ampicillin (L. caseii [7]; 1st-5th 20 min. extraction) | Growth in presence of 60 IU/mL ampicillin (L. caseii [7]; 6th 20 min. + 72 hrs. @ 37° C.) | Growth in presence of 60 IU/mL ampicillin (L. caseii [7]; 6th 20 min. + 96 hrs. @ 37° C.) | Growth in presence of 60 IU/mL ampicillin (L. caseii [7]; Control (no extraction))
tolerant: Tolerance to 60 IU of ampicillin per mL (L. monocytogenes [6])
48 h: Growth in presence of 60 IU amp/mL (L. monocytogenes [4]; Dulbecco's PBS pH 7.3, 1 × 20 min., adjustment time 0 hrs.) | Growth in presence of 60 IU amp/mL (L. monocytogenes [4]; Dulbecco's PBS pH 7.3, 3 × 20 min., adjustment time 0 hrs.) | Growth in presence of 60 IU amp/mL (L. monocytogenes [4]; Dulbecco's PBS pH 7.3, 3 × 20 min., adjustment time 48 hrs.) | Growth in presence of 60 IU amp/mL (L. monocytogenes [4]; Dulbecco's PBS pH 7.3, 3 × 20 min., adjustment time 72 hrs.) | Growth in presence of 60 IU amp/mL (L. monocytogenes [4]; Dulbecco's PBS pH 7.3, 6 × 10 min., adjustment time 0 hrs.) | Growth in presence of 60 IU amp/mL (L. monocytogenes [4]; Dulbecco's PBS pH 7.3, 6 × 20 min., adjustment time 0 hrs.) | Growth in presence of 60 IU amp/mL (L. monocytogenes [4]; Dulbecco's PBS pH 7.3, 6 × 20 min., adjustment time 48 hrs.) | Growth in presence of 60 IU amp/mL (L. monocytogenes [4]; Dulbecco's PBS pH 7.3, 6 × 20 min., adjustment time 72 hrs.) | Growth in presence of 60 IU amp/mL (L. monocytogenes [4]; Dulbecco's PBS pH 7.3, 7 × 40 min., adjustment time 96 hrs.) | Growth in presence of 60 IU amp/mL (L. monocytogenes [4]; Dulbecco's PBS pH 7.3, 9 × 20 min., adjustment time 0 hrs.) | Growth in presence of 60 IU amp/mL (L. monocytogenes [4]; Dulbecco's PBS pH 7.3, 9 × 20 min., adjustment time 48 hrs.) | Growth in presence of 60 IU amp/mL (L. monocytogenes [4]; Dulbecco's PBS pH 7.3, 9 × 20 min., adjustment time 72 hrs.) | Growth in presence of 60 IU amp/mL (L. caseii [7]; L. caseii ATCC 393, Dulbecco's PBS pH 7.3, 7 × 20 min., adjustment time 144 hrs.) | Growth in presence of 60 IU amp/mL (P. aeruginosa; 6 × 20 min., adjustment time 0 hrs.)
144 h: Periods of adjustment required for growth on: 60 IU Amp (L. monocytogenes [2]; serial dilutions 1:10) | Periods of adjustment required for growth on: 60 IU Amp (L. monocytogenes [2]; serial dilutions 1:100) | Periods of adjustment required for growth on: 60 IU Amp (L. monocytogenes [2]; serial dilutions 1:125) | Periods of adjustment required for growth on: 60 IU Amp (L. monocytogenes [2]; serial dilutions 1:1000)
24 h: Growth in presence of 60 IU amp/mL (L. monocytogenes [4]; Dulbecco's 4X PBS pH 7.3, 3 × 20 min., adjustment time 48 hrs.) | Growth in presence of 60 IU amp/mL (L. monocytogenes [4]; Dulbecco's 4X PBS pH 7.3, 3 × 20 min., adjustment time 72 hrs.) | Growth in presence of 60 IU amp/mL (L. monocytogenes [4]; Dulbecco's 10X PBS pH 7.3, 3 × 20 min., adjustment time 48 hrs.) | Growth in presence of 60 IU amp/mL (L. monocytogenes [4]; Dulbecco's 10X PBS pH 7.3, 3 × 20 min., adjustment time 72 hrs.) | Growth in presence of 60 IU amp/mL (L. monocytogenes [4]; Dulbecco's PBS pH 6.1, 5 × 20 min., adjustment time 120 hrs.) | Growth in presence of 60 IU amp/mL (L. monocytogenes [4]; Dulbecco's PBS pH 6.1, 7 × 20 min., adjustment time 96 hrs.) | Growth in presence of 60 IU amp/mL (L. monocytogenes [4]; Dulbecco's PBS pH 7.3, 3 × 40 min., adjustment time 96 hrs.) | Growth in presence of 60 IU amp/mL (L. monocytogenes [4]; Dulbecco's PBS pH 7.3, 5 × 10 min., adjustment time 96 hrs.)
10^4 CFUs/mL: Growth in presence of 60 IU Amp/mL (L. monocytogenes [3]; dilution after adjustment 1:5) | Growth in presence of ampicillin (L. monocytogenes [4]; 1st 20 min. extraction) | Growth in presence of ampicillin (L. monocytogenes [4]; 2nd 20 min. extraction) | Growth in presence of ampicillin (L. monocytogenes [4]; 3rd 20 min. extraction)
10^5 CFUs/mL: Growth in presence of 60 IU Amp/mL (L. monocytogenes [3]; dilution after adjustment 1:25) | Growth in presence of 60 IU Amp/mL (L. monocytogenes [3]; [8]) | Growth in presence of ampicillin (L. monocytogenes [4]; 4th 20 min. extraction) | Growth in presence of ampicillin (L. monocytogenes [4]; 5th 20 min. extraction) | Growth in presence of ampicillin (L. monocytogenes [4]; 6th 20 min. extraction)
10^3 CFUs/mL: Growth in presence of 60 IU Amp/mL (L. monocytogenes [3]; [9])
not tolerant: Tolerance to ampicillin (L. caseii [5]; L. caseii ATCC 393 aroused by dialysis pH 7.3, dilutions 1:5 and 1:5, adjustment period 124 hours at 37° C.) | Tolerance to ampicillin (L. plantarum ATCC 14917)

Nc1ncnc2c1ncn2[C@@H]1O[C@H](CO)[C@@H](O)[C@H]1O [adenosine]
100%: spores that germinate [1]

From US6589771B1, “Methods for arousing dormant bacteria” (Immunom Technologies, Inc., priority 1999, dated 2003)
